These results are taken from ChEMBL document CHEMBL1138277, “Synthesis and in vivo activity of MK2 and MK2 substrate-selective p38alpha(MAPK) inhibitors in Werner syndrome cells” (Bioorg Med Chem Lett, 2007).

Active and inactive are the calls of the source. The calls are words filed in the database; no cut-off is given here.

Assay [1] deals with WS. Description: Growth inhibition of WS cells above 2.5 uM. The assay is classed as functional, cell-based. As to conditions: Homo sapiens.
The target of assay [2] is T1, MAP kinase-activated protein kinase 2 (Homo sapiens, UniProt P49137). Description: Inhibition of MK2 mediated HSP27 phosphorylation in immortalised WS cells assessed as reduction in F-actin stress fibres. The assay is classed as cell-based.
Target sequence in this assay (P49137 whole entry, looked up): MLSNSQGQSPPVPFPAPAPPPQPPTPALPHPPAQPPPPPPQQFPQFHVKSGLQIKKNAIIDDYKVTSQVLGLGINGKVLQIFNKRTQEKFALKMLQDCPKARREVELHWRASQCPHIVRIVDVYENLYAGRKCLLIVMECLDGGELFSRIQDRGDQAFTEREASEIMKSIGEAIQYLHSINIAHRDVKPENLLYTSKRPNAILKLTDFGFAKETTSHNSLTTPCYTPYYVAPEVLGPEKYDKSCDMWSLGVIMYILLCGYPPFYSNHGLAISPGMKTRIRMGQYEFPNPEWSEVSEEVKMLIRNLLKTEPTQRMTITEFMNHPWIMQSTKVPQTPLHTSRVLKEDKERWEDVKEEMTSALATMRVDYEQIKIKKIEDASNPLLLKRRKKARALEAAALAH
Assay [3] has as its target T1, MAP kinase-activated protein kinase 2. The experiment in a line: Inhibition of MK2 in human TERT immortalised HCA2 cells assessed as maximal inhibition of anisomycin-induced HSP27 phosphorylation at 25 uM by ELISA. The assay is classed as cell-based.
Target sequence in this assay (P49137 whole entry, looked up): as above
For assay [4] the target is unchanged. Description: Inhibition of MK2 in human TERT immortalised HCA2 cells assessed as inhibition of anisomycin-induced HSP27 phosphorylation at 2.5 uM by ELISA. The assay is classed as cell-based.
In assay [5] the target is MAP kinase p38 (Homo sapiens) (UniProt O15264+Q15759+Q16539+P53778). Description: Inhibition of p38 mediated MK2 activation in HCA2 cells at 25 uM. The assay is classed as cell-based.
In assay [6] the target is T1, MAP kinase-activated protein kinase 2. Description: Inhibition of MK2 mediated HSP27 phosphorylation in immortalised WS cells assessed as reduction in F-actin stress fibres at 25 uM after 6 days. The assay is classed as cell-based.
Target sequence in this assay (P49137 whole entry, looked up): as above
Assay [7] has the same target. Description: Inhibition of MK2 in human TERT immortalised HCA2 cells assessed as inhibition of anisomycin-induced HSP27 phosphorylation by ELISA. The assay is classed as cell-based. Background: ELISA stands for enzyme-linked immunosorbent assay.
Target sequence in this assay (P49137 whole entry): as the sequence (P49137 whole entry, looked up) above
Another assay is filed under the species Homo sapiens. Description: Inhibition of JNK.
The next assay deals with HCA2. The experiment in a line: Growth inhibition of HCA2 cells above 2.5 uM. The assay is classed as functional, cell-based. As to conditions: Homo sapiens.
Assay [8] concerns WS. Description: Growth inhibition of WS cells above 200 nM. The assay is classed as functional, cell-based. As to conditions: Homo sapiens.

The term IC50 denotes the concentration at which inhibition is half-maximal.

For `N#Cc1c(N)nc2c(c1N)Cc1cc(O)c(O)cc1O2`, the result (with WS [1]; in assay [2]; in [3]; in assay [4]; in assay [6]; with HCA2) was Active. Moreover, the result (in [5]; in the assay listed under Homo sapiens) was inactive. For the same compound, the IC50 in assay [7] was determined as 2.5 µM.
Turning to `C[S+]([O-])c1ccc(-c2nc(-c3ccc(F)cc3)c(-c3ccncc3)[nH]2)cc1` (stereo not drawn), the result in assay [2] was Active.
Regarding `O=C(CCCc1ccc(-c2ccccc2F)cc1)Nc1ccc(O)cc1`, the Ki app in assay [4] came to 0.33 µM. Further, in the assay with WS [8], the outcome was Active. Besides, the outcome in the assay listed under Homo sapiens was inactive.
